Source: patent US20230346988A1, “SYSTEMS FOR IN VIVO MONITORING OF IMMUNE CELLS IN PATIENTS UNDERGOING CELLULAR IMMUNOTHERAPY” (Memorial Sloan Kettering Cancer Center, priority 2020, published 2023)

Tested on: antitumor/anti-DOTA IgG-scFv
Experiment: Affinity measurement of DOTA-PEG6 Biotin by surface plasmon resonance (Biacore)
Conditions: SA chip coated with DOTA-PEG6 Biotin, 1:1 binding model
Excerpt: Affinity measurement of […] by Surface Plasmon Resonance (Biacore). sBiacore T-100 Biosensor, streptavidin (SA) sensor chip, and related reagents were purchased from GE Healthcare. The SA chip coated with […] and then flowed over with an antitumor/anti-DOTA IgG-scFv. The KDs were generated from a sensorgram data series consisting of 6 concentrations of anti-tumor/anti-DOTA IgG-scFv, by fitting to a 1:1 binding model using the Biacore T-100 evaluation software.

Kd (6 concentrations of IgG-scFv): 0.0686 nM
kd (6 concentrations of IgG-scFv): 5.05e-05 s⁻¹
SMILES: O=C(O)CN1CCN(CC(=O)O)CCN(CC(=O)O)C(Cc2ccc(NC(=S)NCCOCCOCCOCCOCCOCCOCCNC(=O)CCCCC3SC[C@@H]4NC(=O)N[C@H]34)cc2)CN(CC(=O)O)CC1 (stereo partly shown) [DOTA-PEG6 Biotin]
t½: 3.811 h
ka (6 concentrations of IgG-scFv): 736000 M⁻¹ s⁻¹
